Assay [1] has as its target T1, Potassium voltage-gated channel subfamily A member 3 (Homo sapiens, UniProt P22001). On the set-up: species or system Blood.
For assay [2], the target named is T1, Potassium voltage-gated channel subfamily A member 3. The assay is described as follows: cell-based. On the set-up: species or system Blood.

For 6 compounds, IC50 results are on record in ChEMBL document CHEMBL3608278 (J Med Chem, 2015).

Broadly, the IC50 is the concentration that gives 50% inhibition.

T1 sequence (P22001 whole entry): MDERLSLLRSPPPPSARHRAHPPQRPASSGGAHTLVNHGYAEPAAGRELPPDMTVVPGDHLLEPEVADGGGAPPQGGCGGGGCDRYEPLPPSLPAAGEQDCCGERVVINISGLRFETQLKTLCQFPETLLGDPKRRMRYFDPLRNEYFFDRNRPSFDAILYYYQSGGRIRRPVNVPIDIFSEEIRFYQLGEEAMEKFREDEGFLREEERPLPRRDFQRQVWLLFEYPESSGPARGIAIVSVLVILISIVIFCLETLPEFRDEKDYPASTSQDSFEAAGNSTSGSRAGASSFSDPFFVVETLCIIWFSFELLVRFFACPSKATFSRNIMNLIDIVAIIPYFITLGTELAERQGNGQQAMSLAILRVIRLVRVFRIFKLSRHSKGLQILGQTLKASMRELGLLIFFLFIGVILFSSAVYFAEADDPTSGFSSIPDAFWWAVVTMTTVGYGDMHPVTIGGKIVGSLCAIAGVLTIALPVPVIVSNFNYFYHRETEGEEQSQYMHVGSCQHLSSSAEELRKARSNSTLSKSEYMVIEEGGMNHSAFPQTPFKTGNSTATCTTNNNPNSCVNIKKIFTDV

Consider `CC[C@H](C)[C@@H]1NC(=O)[C@@H](NC(=O)[C@H](CO)NC(=O)[C@@H](N)CCCNC(=N)N)CSSC[C@@H](C(=O)O)NC(=O)[C@H]([C@@H](C)O)NC(=O)CNC(=O)[C@@H]2CSSC[C@@H]3NC(=O)[C@H](CCC(N)=O)NC(=O)[C@H](Cc4ccccc4)NC(=O)[C@H](C)NC(=O)[C@H]([C@@H](C)O)NC(=O)[C@H](CSSC[C@H](NC(=O)[C@H](Cc4ccccc4)NC(=O)[C@H](CO)NC(=O)[C@H](CC(C)C)NC(=O)[C@H](CCCNC(=N)N)NC(=O)[C@H](Cc4ccc(O)cc4)NC(=O)[C@H](CCCCN)NC(=O)[C@H](CCSC)NC(=O)[C@H](CO)NC(=O)[C@H](Cc4cccc5ccccc45)NC(=O)[C@H](CCCCN)NC3=O)C(=O)N[C@@H](CCCNC(=N)N)C(=O)N[C@@H](CCCCN)C(=O)N[C@@H]([C@@H](C)O)C(=O)N2)NC(=O)[C@H](CCCNC(=N)N)NC(=O)[C@H](CO)NC(=O)[C@H](CCCCN)NC(=O)[C@@H]2CCCN2C(=O)[C@H]([C@@H](C)CC)NC(=O)[C@H]([C@@H](C)O)NC(=O)[C@H](CC(=O)O)NC1=O`, for which the IC50 was 0.255 nM in assay [1] and 0.153 nM in assay [2]. On to `CC[C@H](C)[C@@H]1NC(=O)[C@@H](NC(=O)[C@H](CO)NC(=O)[C@@H](N)CCCNC(=N)N)CSSC[C@@H](C(=O)O)NC(=O)[C@H]([C@@H](C)O)NC(=O)CNC(=O)[C@@H]2CSSC[C@@H]3NC(=O)[C@H](CCC(N)=O)NC(=O)[C@H](Cc4ccccc4)NC(=O)[C@H](C)NC(=O)[C@H]([C@@H](C)O)NC(=O)[C@H](CSSC[C@H](NC(=O)[C@H](Cc4ccccc4)NC(=O)[C@H](CO)NC(=O)[C@H](CC(C)C)NC(=O)[C@H](C)NC(=O)[C@H](Cc4ccc(O)cc4)NC(=O)[C@H](CCCCN)NC(=O)[C@H](CCSC)NC(=O)[C@H](CO)NC(=O)[C@H](Cc4cnc[nH]4)NC(=O)[C@H](CCCCN)NC3=O)C(=O)N[C@@H](CCCNC(=N)N)C(=O)N[C@@H](CCCCN)C(=O)N[C@@H]([C@@H](C)O)C(=O)N2)NC(=O)[C@H](CCCNC(=N)N)NC(=O)[C@H](CO)NC(=O)[C@H](CCCCN)NC(=O)[C@@H]2CCCN2C(=O)[C@H]([C@@H](C)CC)NC(=O)[C@H]([C@@H](C)O)NC(=O)[C@H](CC(=O)O)NC1=O`, for which the values for the IC50 in assay [1] and in assay [2] were 0.186 nM and 0.045 nM, respectively. For `CC[C@H](C)[C@@H]1NC(=O)[C@@H](NC(=O)[C@H](CO)NC(=O)[C@@H](N)CCCNC(=N)N)CSSC[C@@H](C(=O)O)NC(=O)[C@H]([C@@H](C)O)NC(=O)CNC(=O)[C@@H]2CSSC[C@@H]3NC(=O)[C@H](CCC(N)=O)NC(=O)[C@H](Cc4ccccc4)NC(=O)[C@H](C)NC(=O)[C@H]([C@@H](C)O)NC(=O)[C@H](CSSC[C@H](NC(=O)[C@H](Cc4ccccc4)NC(=O)[C@H](CO)NC(=O)[C@H](CC(C)C)NC(=O)[C@H](CCCNC(=N)N)NC(=O)[C@H](Cc4ccc(O)cc4)NC(=O)[C@H](CCCCN)NC(=O)[C@H](CCSC)NC(=O)[C@H](CO)NC(=O)[C@H](Cc4cnc[nH]4)NC(=O)[C@H](CCCCN)NC3=O)C(=O)N[C@@H](CCCNC(=N)N)C(=O)N[C@@H](CCCCN)C(=O)N[C@@H]([C@@H](C)O)C(=O)N2)NC(=O)[C@H](Cc2cccc3ccccc23)NC(=O)[C@H](CO)NC(=O)[C@H](CCCCN)NC(=O)[C@@H]2CCCN2C(=O)[C@H]([C@@H](C)CC)NC(=O)[C@H]([C@@H](C)O)NC(=O)[C@H](CC(=O)O)NC1=O`, in that order: 1.65 nM and 1.14 nM. `CC[C@H](C)[C@@H]1NC(=O)[C@@H](NC(=O)[C@H](CO)NC(=O)[C@@H](N)CCCNC(=N)N)CSSC[C@@H](C(=O)O)NC(=O)[C@H]([C@@H](C)O)NC(=O)CNC(=O)[C@@H]2CSSC[C@@H]3NC(=O)[C@H](CCC(N)=O)NC(=O)[C@H](Cc4ccccc4)NC(=O)[C@H](C)NC(=O)[C@H]([C@@H](C)O)NC(=O)[C@H](CSSC[C@H](NC(=O)[C@H](Cc4ccccc4)NC(=O)[C@H](CO)NC(=O)[C@H](CC(C)C)NC(=O)[C@H](CCCNC(=N)N)NC(=O)[C@H](Cc4ccc(O)cc4)NC(=O)[C@H](CCCCN)NC(=O)[C@H](CCSC)NC(=O)[C@H](CO)NC(=O)[C@H](Cc4cnc[nH]4)NC(=O)[C@H](CCCCN)NC3=O)C(=O)N[C@@H](CCCNC(=N)N)C(=O)N[C@@H](CCCCN)C(=O)N[C@@H]([C@@H](C)O)C(=O)N2)NC(=O)[C@H](CCCNC(=N)N)NC(=O)[C@H](CO)NC(=O)[C@H](CCCCN)NC(=O)[C@H](CCC(=O)O)NC(=O)[C@H]([C@@H](C)CC)NC(=O)[C@H]([C@@H](C)O)NC(=O)[C@H](CC(=O)O)NC1=O` showed an IC50 in assay [1] of 0.239 nM.

`CC[C@H](C)[C@@H]1NC(=O)[C@@H](NC(=O)[C@H](CCCNC(=N)N)NC(=O)[C@@H](N)CCCNC(=N)N)CSSC[C@@H](C(=O)O)NC(=O)[C@H]([C@@H](C)O)NC(=O)CNC(=O)[C@@H]2CSSC[C@@H]3NC(=O)[C@H](CCC(N)=O)NC(=O)[C@H](Cc4ccccc4)NC(=O)[C@H](C)NC(=O)[C@H]([C@@H](C)O)NC(=O)[C@H](CSSC[C@H](NC(=O)[C@H](Cc4ccccc4)NC(=O)[C@H](CO)NC(=O)[C@H](CC(C)C)NC(=O)[C@H](CCCNC(=N)N)NC(=O)[C@H](Cc4ccc(O)cc4)NC(=O)[C@H](CCCCN)NC(=O)[C@H](CCSC)NC(=O)[C@H](CO)NC(=O)[C@H](Cc4cnc[nH]4)NC(=O)[C@H](CCCCN)NC3=O)C(=O)N[C@@H](CCCNC(=N)N)C(=O)N[C@@H](CCCCN)C(=O)N[C@@H]([C@@H](C)O)C(=O)N2)NC(=O)[C@H](CCCNC(=N)N)NC(=O)[C@H](CO)NC(=O)[C@H](CCCCN)NC(=O)[C@@H]2CCCN2C(=O)[C@H]([C@@H](C)CC)NC(=O)[C@H]([C@@H](C)O)NC(=O)[C@H](CC(=O)O)NC1=O`: the IC50 came to 0.116 nM in assay [1] and 0.087 nM in assay [2]. For `CC[C@H](C)[C@@H]1NC(=O)[C@@H](NC(=O)[C@H](CO)NC(=O)[C@@H](N)CCCNC(=N)N)CSSC[C@@H](C(=O)O)NC(=O)[C@H](CCC(=O)O)NC(=O)CNC(=O)[C@@H]2CSSC[C@@H]3NC(=O)[C@H](CCC(N)=O)NC(=O)[C@H](Cc4ccccc4)NC(=O)[C@H](C)NC(=O)[C@H]([C@@H](C)O)NC(=O)[C@H](CSSC[C@H](NC(=O)[C@H](Cc4ccccc4)NC(=O)[C@H](CO)NC(=O)[C@H](CC(C)C)NC(=O)[C@H](CCCNC(=N)N)NC(=O)[C@H](Cc4ccc(O)cc4)NC(=O)[C@H](CCCCN)NC(=O)[C@H](CCSC)NC(=O)[C@H](CO)NC(=O)[C@H](Cc4cnc[nH]4)NC(=O)[C@H](CCCCN)NC3=O)C(=O)N[C@@H](CCCNC(=N)N)C(=O)N[C@@H](CCCCN)C(=O)N[C@@H]([C@@H](C)O)C(=O)N2)NC(=O)[C@H](CCCNC(=N)N)NC(=O)[C@H](CO)NC(=O)[C@H](CCCCN)NC(=O)[C@@H]2CCCN2C(=O)[C@H]([C@@H](C)CC)NC(=O)[C@H]([C@@H](C)O)NC(=O)[C@H](CC(=O)O)NC1=O`, the IC50 in assay [1] is 0.124 nM.
